Measurements published in PubChem BioAssay AID328 (DTP/NCI, 2004).
Where “and” joins values, the source holds several entries; their conditions need not be identical. Equal values may be shown once. Inconclusive results and toxic doses are left out. Residues, ends and D or L forms follow the SMILES beside them. *: point of attachment. Cbz = O=C(OCc1ccccc1)*; Bn = c1ccc(C*)cc1

Test system: BDF1 mice, P388 leukemia ip, median survival T/C
Test: NCI In Vivo Anticancer Drug Screen. Data for tumor model P388 Leukemia (intraperitoneal) in B6D2F1 (BDF1) mice
Details: endpoint: median survival time, higher = longer survival
Method in brief: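 Compound-treated tumour-bearing mice were compared with vehicle-treated controls. Survival was recorded, and the value is the treated-group measurement divided by the control-group measurement (T/C).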

[1] = dose: 100.0 mg/kg/injection, schedule: Q01DX009 (ip), vehicle: saline with Tween-80
[2] = dose: 100.0 mg/kg/injection, schedule: Q04DX003 (ip), vehicle: saline with Tween-80

In the case of `NC(=O)c1cn(C2OC(CO)C(O)C2O)c2ncnc(N)c12` (centres undefined), the T/C (dose: 0.18 mg/kg/injection, schedule: Q01DX009 (ip), vehicle: saline with Tween-80) is reported as 183 % of control, the T/C (dose: 0.25 mg/kg/injection, schedule: Q01DX010 (ip), vehicle: water) is reported as 181 % of control and the T/C (dose: 0.37 mg/kg/injection, schedule: Q01DX009 (ip), vehicle: saline with Tween-80) is reported as 162 % of control. The T/C (dose: 0.5 mg/kg/injection, schedule: Q01DX010 (ip), vehicle: water) was 190 % of control, the T/C (dose: 0.5 mg/kg/injection, schedule: Q04DX003 (ip), vehicle: saline) was 163 % of control and the T/C (dose: 0.75 mg/kg/injection, schedule: Q01DX009 (ip), vehicle: saline with Tween-80) was 187 % of control and 200 % of control. For the same molecule, the T/C (dose: 0.75 mg/kg/injection, schedule: Q01DX010 (ip), vehicle: water) was 177 % of control, the T/C (dose: 1.5 mg/kg/injection, schedule: Q01DX009 (ip), vehicle: saline with Tween-80) was 195 % of control and the T/C (dose: 1.5 mg/kg/injection, schedule: Q04DX003 (ip), vehicle: saline) was 154 % of control. For the same molecule, the T/C (dose: 2.0 mg/kg/injection, schedule: Q04DX003 (ip), vehicle: saline with Tween-80) was 122 % of control, the T/C (dose: 3.0 mg/kg/injection, schedule: Q04DX003 (ip), vehicle: saline with Tween-80) was 195 % of control and the T/C (dose: 3.0 mg/kg/injection, schedule: Q04DX003 (ip), vehicle: saline) was 195 % of control. For the same molecule, the T/C (dose: 6.0 mg/kg/injection, schedule: Q04DX003 (ip), vehicle: saline with Tween-80) was 190 % of control and the T/C (dose: 6.0 mg/kg/injection, schedule: Q04DX003 (ip), vehicle: saline) was 90 % of control.
`Cc1ccc(Nc2nnc(N=Nc3ccccc3)s2)cc1C` was tested, and the T/C (dose: 100.0 mg/kg/injection, schedule: Q01DX001 (ip), vehicle: Klucel (hydroxypropylcellulose) (HPC)) was 100 % of control, the T/C (dose: 200.0 mg/kg/injection, schedule: Q01DX001 (ip), vehicle: Klucel (hydroxypropylcellulose) (HPC)) was 90 % of control and the T/C (dose: 400.0 mg/kg/injection, schedule: Q01DX001 (ip), vehicle: Klucel (hydroxypropylcellulose) (HPC)) was 100 % of control.
In the case of `Cc1ccc(S(=O)(=O)Cl)c(Cl)c1`, the T/C (dose: 25.0 mg/kg/injection, schedule: Q01DX009 (ip), vehicle: saline with Tween-80) is reported as 100 % of control, the T/C (dose: 50.0 mg/kg/injection, schedule: Q01DX009 (ip), vehicle: saline with Tween-80) is reported as 116 % of control and the T/C (dose: 50.0 mg/kg/injection, schedule: Q04DX003 (ip), vehicle: saline with Tween-80) is reported as 104 % of control. For the same molecule, the T/C [1] was 112 % of control and the T/C [2] was 113 % of control.
With `Cc1ccc(C2(C#N)CCCCC2)cc1` the T/C (dose: 66.0 mg/kg/injection, schedule: Q01DX009 (ip), vehicle: saline with Tween-80) was 116 % of control, the T/C [1] was 120 % of control and the T/C [2] was 100 % of control. The T/C (dose: 150.0 mg/kg/injection, schedule: Q01DX009 (ip), vehicle: saline with Tween-80) was 112 % of control, the T/C (dose: 200.0 mg/kg/injection, schedule: Q01DX009 (ip), vehicle: saline with Tween-80) was 108 % of control and the T/C (dose: 200.0 mg/kg/injection, schedule: Q04DX003 (ip), vehicle: saline with Tween-80) was 108 % of control. The T/C (dose: 400.0 mg/kg/injection, schedule: Q01DX009 (ip), vehicle: saline with Tween-80) was 116 % of control and the T/C (dose: 400.0 mg/kg/injection, schedule: Q04DX003 (ip), vehicle: saline with Tween-80) was 112 % of control.
With `O=C(NCCN1CC1)C(=O)NCCN1CC1` the T/C (dose: 1.56 mg/kg/injection, schedule: Q04DX003 (ip), vehicle: saline with Tween-80) was 250 % of control, the T/C (dose: 3.12 mg/kg/injection, schedule: Q04DX003 (ip), vehicle: saline with Tween-80) was 173 % of control and the T/C (dose: 6.25 mg/kg/injection, schedule: Q04DX003 (ip), vehicle: saline with Tween-80) was 105 % of control.
In the case of `CC(C)CC(NC(=O)C1CCCN1C(=O)C(CSCc1ccccc1)NC(=O)OCc1ccccc1)C(=O)NCC(N)=O` (centres undefined) (Cbz-C(Bn)PLG-NH2; configuration not given here), the T/C (dose: 100.0 mg/kg/injection, schedule: Q04DX003 (ip), vehicle: Klucel (hydroxypropylcellulose) (HPC)) is reported as 99 % of control, the T/C (dose: 200.0 mg/kg/injection, schedule: Q04DX003 (ip), vehicle: Klucel (hydroxypropylcellulose) (HPC)) is reported as 95 % of control and the T/C (dose: 400.0 mg/kg/injection, schedule: Q04DX003 (ip), vehicle: Klucel (hydroxypropylcellulose) (HPC)) is reported as 87 % of control.
With `CCCCN=C(N)c1ccc(NC(=O)c2ccc(C(=O)Nc3ccc(C(N)=NCCCC)cc3)cc2)cc1` the T/C (dose: 15.0 mg/kg/injection, schedule: Q04DX003 (ip), vehicle: saline with Tween-80) was 122 % of control, the T/C (dose: 26.0 mg/kg/injection, schedule: Q04DX003 (ip), vehicle: saline with Tween-80) was 154 % of control and the T/C (dose: 30.0 mg/kg/injection, schedule: Q01DX009 (ip), vehicle: saline with Tween-80) was 196 % of control. For the same molecule, the T/C (dose: 30.0 mg/kg/injection, schedule: Q04DX003 (ip), vehicle: saline with Tween-80) was 158 % of control and 181 % of control, the T/C (dose: 40.0 mg/kg/injection, schedule: Q04DX003 (ip), vehicle: saline with Tween-80) was 166 % of control and 181 % of control and the T/C (dose: 45.0 mg/kg/injection, schedule: Q04DX003 (ip), vehicle: saline with Tween-80) was 179 % of control. The T/C (dose: 60.0 mg/kg/injection, schedule: Q04DX003 (ip), vehicle: saline with Tween-80) was 163 % of control and 183 % of control and 186 % of control and the T/C (dose: 90.0 mg/kg/injection, schedule: Q04DX003 (ip), vehicle: saline with Tween-80) was 204 % of control.
